From ChEMBL document CHEMBL3885861, “Open TG-GATES”

Organism: Rattus norvegicus
Assay: Open TG-GATES - Regimen: Single
Format: toxicity, organism-based, Sprague-Dawley
Parameters: regimen Single, gender Male, age 6 weeks
Details: in vivo, po, 120 mg/kg, route gavage, dose level Middle; for APTT / Bas / Eos / Fbg / Hb / Ht / Lym / MCH / MCHC / MCV / Mono / Neu / PT / Plat / RBC / Ret / WBC: tissue Blood; for KIDNEY_L / KIDNEY_R / KIDNEY_TOTAL: tissue Kidney; for LIVER: tissue Liver; for A/G / ALP / ALT / AST / BUN / CRE / Ca / Cl / DBIL / GLC / IP / K / LDH / Na / PL / RALB / TBIL / TC / TG / TP / gamma-GTP: tissue Plasma

Cc1cccc(C)c1OCC(C)N (configuration not stated) [MEXILETINE]
TERMINAL_BW (3 h): 218.1 g | APTT (3 h): 21.8 s | Bas (3 h): 0% | Eos (3 h): 0.4% | Fbg (3 h): 310.2 mg/dL | Hb (3 h): 13.1 g/dL | Ht (3 h): 40.6% | Lym (3 h): 83.2% | MCH (3 h): 20.1 pg | MCHC (3 h): 32.2% | MCV (3 h): 62.6 fL | Mono (3 h): 2% | Neu (3 h): 13.6% | PT (3 h): 15.9 s | Plat (3 h): 113.4 x10_4/uL | RBC (3 h): 648.8 x10_4/ul | Ret (3 h): 7.3% | WBC (3 h): 96 x10_2/uL | KIDNEY_L (3 h): 1 g | KIDNEY_R (3 h): 1 g | KIDNEY_TOTAL (3 h): 1.9 g | LIVER (3 h): 10.1 g | A/G (3 h): 1.3 | ALP (3 h): 1543.6 IU/L | ALT (3 h): 54.4 IU/L | AST (3 h): 78.4 IU/L | BUN (3 h): 12.8 mg/dL | CRE (3 h): 0.2 mg/dL | Ca (3 h): 10.5 mg/dL | Cl (3 h): 106.4 meq/L | DBIL (3 h): 0 mg/dL | GLC (3 h): 182.6 mg/dL | IP (3 h): 9.4 mg/dL | K (3 h): 4.4 meq/L | LDH (3 h): 175.2 IU/L | Na (3 h): 141.6 meq/L | PL (3 h): 135 mg/dL | RALB (3 h): 3.1 g/dL | TBIL (3 h): 0.018 mg/dL | TC (3 h): 77.2 mg/dL | TG (3 h): 61.8 mg/dL | TP (3 h): 5.5 g/dL | gamma-GTP (3 h): 1.2 IU/L | TERMINAL_BW (6 h): 209 g | APTT (6 h): 21.2 s | Bas (6 h): 0% | Eos (6 h): 0.8% | Fbg (6 h): 318.6 mg/dL | Hb (6 h): 13.2 g/dL | Ht (6 h): 40.5% | Lym (6 h): 77.4% | MCH (6 h): 20.4 pg | MCHC (6 h): 32.6% | MCV (6 h): 62.6 fL | Mono (6 h): 2.4% | Neu (6 h): 19% | PT (6 h): 16.1 s | Plat (6 h): 120.4 x10_4/uL | RBC (6 h): 647 x10_4/ul | Ret (6 h): 6.8% | WBC (6 h): 69.3 x10_2/uL | KIDNEY_L (6 h): 0.9 g | KIDNEY_R (6 h): 0.9 g | KIDNEY_TOTAL (6 h): 1.9 g | LIVER (6 h): 9 g | A/G (6 h): 1.2 | ALP (6 h): 1633.4 IU/L | ALT (6 h): 43.8 IU/L | AST (6 h): 73.4 IU/L | BUN (6 h): 9.8 mg/dL | CRE (6 h): 0.2 mg/dL | Ca (6 h): 10.6 mg/dL | Cl (6 h): 107.4 meq/L | DBIL (6 h): 0 mg/dL | GLC (6 h): 184.6 mg/dL | IP (6 h): 8.6 mg/dL | K (6 h): 4.1 meq/L | LDH (6 h): 179.2 IU/L | Na (6 h): 142 meq/L | PL (6 h): 124.6 mg/dL | RALB (6 h): 3.1 g/dL | TBIL (6 h): 0.03 mg/dL | TC (6 h): 68.6 mg/dL | TG (6 h): 48.6 mg/dL | TP (6 h): 5.7 g/dL | gamma-GTP (6 h): 1.2 IU/L | TERMINAL_BW (9 h): 219.2 g | APTT (9 h): 22.9 s | Bas (9 h): 0% | Eos (9 h): 1% | Fbg (9 h): 318.6 mg/dL | Hb (9 h): 12.6 g/dL | Ht (9 h): 39% | Lym (9 h): 78.6% | MCH (9 h): 20.2 pg | MCHC (9 h): 32.3% | MCV (9 h): 62.6 fL | Mono (9 h): 2.4% | Neu (9 h): 17.2% | PT (9 h): 16.3 s | Plat (9 h): 120 x10_4/uL | RBC (9 h): 624 x10_4/ul | Ret (9 h): 7.2% | WBC (9 h): 97.2 x10_2/uL | KIDNEY_L (9 h): 1 g | KIDNEY_R (9 h): 1 g | KIDNEY_TOTAL (9 h): 2 g | LIVER (9 h): 9.5 g | A/G (9 h): 1.2 | ALP (9 h): 1531 IU/L | ALT (9 h): 44.6 IU/L | AST (9 h): 71.8 IU/L | BUN (9 h): 10.6 mg/dL | CRE (9 h): 0.2 mg/dL | Ca (9 h): 10.6 mg/dL | Cl (9 h): 104.6 meq/L | DBIL (9 h): 0 mg/dL | GLC (9 h): 188.4 mg/dL | IP (9 h): 9 mg/dL | K (9 h): 4.3 meq/L | LDH (9 h): 143.8 IU/L | Na (9 h): 140.2 meq/L | PL (9 h): 130.4 mg/dL | RALB (9 h): 3 g/dL | TBIL (9 h): 0.02 mg/dL | TC (9 h): 74 mg/dL | TG (9 h): 66.8 mg/dL | TP (9 h): 5.4 g/dL | gamma-GTP (9 h): 1.2 IU/L | TERMINAL_BW (24 h): 231.4 g | APTT (24 h): 19.9 s | Bas (24 h): 0% | Eos (24 h): 0.8% | Fbg (24 h): 293.8 mg/dL | Hb (24 h): 12.8 g/dL | Ht (24 h): 39.5% | Lym (24 h): 81% | MCH (24 h): 20.6 pg | MCHC (24 h): 32.3% | MCV (24 h): 63.8 fL | Mono (24 h): 2.4% | Neu (24 h): 15.2% | PT (24 h): 15.9 s | Plat (24 h): 117.4 x10_4/uL | RBC (24 h): 619.8 x10_4/ul | Ret (24 h): 7.6% | WBC (24 h): 86.1 x10_2/uL | KIDNEY_L (24 h): 1 g | KIDNEY_R (24 h): 1 g | KIDNEY_TOTAL (24 h): 2 g | LIVER (24 h): 10.8 g | A/G (24 h): 1.3 | ALP (24 h): 1779.4 IU/L | ALT (24 h): 50 IU/L | AST (24 h): 75 IU/L | BUN (24 h): 17.2 mg/dL | CRE (24 h): 0.2 mg/dL | Ca (24 h): 10.7 mg/dL | Cl (24 h): 106.2 meq/L | DBIL (24 h): 0 mg/dL | GLC (24 h): 188.6 mg/dL | IP (24 h): 7.6 mg/dL | K (24 h): 4.2 meq/L | LDH (24 h): 205 IU/L | Na (24 h): 141.4 meq/L | PL (24 h): 148.4 mg/dL | RALB (24 h): 3.1 g/dL | TBIL (24 h): 0.008 mg/dL | TC (24 h): 74.2 mg/dL | TG (24 h): 150.8 mg/dL | TP (24 h): 5.6 g/dL | gamma-GTP (24 h): 1.6 IU/L
